From patent publication US10624880B2, “Predicting response to alvocidib by mitochondrial profiling” (Tolero Pharmaceuticals, Inc., priority 2015, dated 2020) come the findings set out here.

Where only a bound is given, the exact number is not on record here.

For one test, the system named is MV-4-11 cells. As to the kind of experiment: 24 hour EC50 in MV-4-11 cells. Type of test: cell-based. The following applies: Homo sapiens, MV4-11, read-out: 24 hour EC 50. The source says: (§1) Following the treatment, cells were harvested and prepared using standard immunoblotting techniques for detection of MCL-1.
A further test deals with MCL-1 mRNA in A549 cells. As to the kind of experiment: RT-PCR of MCL-1 mRNA in A549 cells. The following applies: A549, alvocidib 0-8 μM, 2 hrs, FIG. 8. The test is classed as cell-based, human. Here is the method:
The A549 cell line is a human adenocarcinoma cell line, which expresses MCL-1. […] A549 cells were treated with alvocidib for 2 hrs in vitro. Following treatment, cells were harvested and prepared using a standard RT-PCR assay for detection of MCL-1 mRNA to probe for changes relative to controls.

Test [1] deals with MCL-1 mRNA in MV-4-11 cells. As to the kind of experiment: RT-PCR of MCL-1 mRNA in MV-4-11 cells. The test is classed as cell-based. How it is done:
An AML cell line, MV-4-11, expresses MCL-1. MCL-1 is a key anti-apoptotic protein in MV-4-11 cells. Alvocidib, a CDK9 inhibitor, lowers the expression of MCL-1 mRNA, which is already well documented in the literature. […] MV-4-11 cells were treated with alvocidib for 2 hrs in vitro. Following treatment, cells were harvested and prepared using a standard real time PCR (RT-PCR) assay for detection of MCL-1 mRNA to probe for changes relative to controls.
The relative expression of MCL-1 mRNA was measured at 0.5-16 hour time points after dosing with 100 nM of alvocidib.
Following treatment, cells were harvested and prepared using standard RT-PCR assay for detection of MCL-1 mRNA expression.

The subject of a further test is MCL-1 in MV-4-11 cells. The experiment in a line: MCL-1 immunoblotting in the ACM (or FLAM) regimen modeled in vitro. Type of test: cell-based.
Excerpt: as §1
(In general: A western blot detects proteins with antibodies after separation by electrophoresis.)

Test [2] relates to MCL-1, Bcl-xL, and Bcl-2 in MV-4-11 cells. The experiment in a line: Immunoblotting of MCL-1, Bcl-xL, Bcl-2 in MV-4-11 cells. The test is classed as cell-based. How it is done: The dose dependence is observed by monitoring the relative expression of MCL-1 compared to β-actin when cells are dosed with alvocidib at concentrations of 0-8 μM. MV4-11 cells were treated with alvocidib for 2 hrs in vitro. Following treatment, cells were harvested and prepared using standard immunoblotting techniques for detection of MCL-1 to probe for changes relative to β-actin.
The time dependence is observed by monitoring the relative expression of MCL-1, Bcl-xL, and Bcl-2 compared β-actin over time. The relative expression of MCL-1, Bcl-xL, and Bcl-2 was measured at 1-96 hour time points after dosing with 80 nM of alvocidib.
Following treatment, cells were harvested and prepared using standard immunoblotting techniques for detection of MCL-1, Bcl-xL, and Bcl-2 expression.

In the next test the test system is N-Myc in SK-N-AS cells. The experiment in a line: Immunoblotting of N-Myc in SK-N-AS cells. The test is classed as cell-based, human. The following applies: 300 nM, 1-24 hour, FIG. 11. Here is the method:
The SK-N-AS cell line is a human neuroblastoma cell line that expresses N-Myc, which is a key oncogenic protein. […] The time dependence is observed by monitoring the relative expression of N-Myc compared β-actin over time. The relative expression of N-Myc was measured at 1-24 hour time points after dosing with 300 nM of alvocidib.
Following treatment, cells were harvested and prepared using standard immunoblotting techniques for detection of N-Myc expression.

In test [3] the test system is MCL-1, Bcl-xL, and Bcl-2 in Panc-1 cells. As to the kind of experiment: Immunoblotting of MCL-1, Bcl-xL, Bcl-2 in Panc-1 cells. The test is classed as cell-based, human. The following applies: Panc-1, 730 nM.
Method: The time dependence is observed by monitoring the relative expression of MCL-1, Bcl-xL, and Bcl-2 compared β-actin over time. The relative expression of MCL-1, Bcl-xL, and Bcl-2 was measured at 0-96 hour time points after dosing with 730 nM of alvocidib. In one group, after 24 hours of treatment, media was removed and replaced with fresh media containing 730 nM alvocidib (i.e., a wash step; see FIG. 13A). Panc-1 cells were treated with 730 nM alvocidib in vitro for the times indicated in FIG. 13A-B. Following treatment (and wash step as applicable), cells were harvested and prepared using standard immunoblotting techniques for detection of MCL-1, Bcl-xL, and Bcl-2 expression. […] The time dependence is observed by monitoring the relative expression of MCL-1, Bcl-xL, and Bcl-2 compared β-actin over time. The relative expression of MCL-1, Bcl-xL, and Bcl-2 was measured at 0-96 hour time points after dosing with 730 nM of alvocidib. Cells were treated 3 times (three 24 hour periods, broken by two 24 hour breaks) with 730 nM alvocidib in vitro. Following treatment, cells were harvested and prepared using standard immunoblotting techniques for detection of MCL-1, Bcl-xL, and Bcl-2 expression.
Test [4] deals with MCL-1, Bcl-xL, and Bcl-2 in Yugen8 cells. As to the kind of experiment: Immunoblotting of MCL-1, Bcl-xL, Bcl-2 in Yugen8 cells. The test is classed as cell-based. The following applies: Yugen8, 280 nM.
Method: The time dependence is observed by monitoring the relative expression of MCL-1, Bcl-xL, and Bcl-2 compared β-actin over time. The relative expression of MCL-1, Bcl-xL, and Bcl-2 was measured at 0-96 hour time points after dosing with 280 nM of alvocidib. In one group, after 24 hours of treatment, media was removed and replaced with fresh media containing 280 nM alvocidib (i.e., a wash step; see FIG. 15A). Yugen8 cells were treated with 280 nM alvocidib in vitro for the times indicated in FIG. 15A-B. Following treatment (and wash step as applicable), cells were harvested and prepared using standard immunoblotting techniques for detection of MCL-1, Bcl-xL, and Bcl-2 expression. […] The time dependence is observed by monitoring the relative expression of MCL-1, Bcl-xL, and Bcl-2 compared β-actin over time. The relative expression of MCL-1, Bcl-xL, and Bcl-2 was measured at 0-96 hour time points after dosing with 280 nM of alvocidib. Cells were treated 3 times (three 24 hour periods, broken by two 24 hour breaks) with 280 nM alvocidib in vitro. Following treatment, cells were harvested and prepared using standard immunoblotting techniques for detection of MCL-1, Bcl-xL, and Bcl-2 expression.
The test system of test [5] is MCL-1, Bcl-xL, and Bcl-2 in A549 cells. As to the kind of experiment: Immunoblotting of MCL-1, Bcl-xL, Bcl-2 in A549 cells. The following applies: A549, 350 nM. Type of test: cell-based, human. How it is done:
The relative expression of MCL-1, Bcl-xL, and Bcl-2 was measured at 0-96 hour time points after dosing with 350 nM of alvocidib. In one group, after 24 hours of treatment, media was removed and replaced with fresh media […] (i.e., a wash step; see FIG. 9A).
A549 cells were treated with 350 nM alvocidib in vitro for the times indicated in FIG. 9A-B. Following treatment (and wash step as applicable), cells were harvested and prepared using standard immunoblotting techniques for detection of MCL-1, Bcl-xL, and Bcl-2 expression.
The relative expression of MCL-1, Bcl-xL, and Bcl-2 was measured at 0-96 hour time points after dosing with 350 nM of alvocidib.
Cells were treated 3 times (three 24 hour periods, broken by two 24 hour breaks) with 350 nM alvocidib in vitro. Following treatment, cells were harvested and prepared using standard immunoblotting techniques for detection of MCL-1, Bcl-xL, and Bcl-2 expression.

On to `CC(=O)c1c(C)c2cnc(Nc3ccc(N4CCNCC4)cn3)nc2n(C2CCCC2)c1=O` [palbociclib], for which the EC50 in the test with MV-4-11 cells was 1000 nM.

`CN1CC[C@H](c2c(O)cc(O)c3c(=O)cc(-c4ccccc4Cl)oc23)[C@H](O)C1` [alvocidib]: the “relative expression of MCL-1 mRNA compared to controls” value with MCL-1 mRNA in A549 cells is reported as “down-regulates MCL-1 mRNA in A549 cells in a dose dependent manner”; in test [1] (MV-4-11, alvocidib 0-8 μM, 2 hrs, FIG. 7A), “down-regulates MCL-1 mRNA in MV-4-11 cells in a dose dependent manner”. For the same molecule, the “time post-treatment at which MCL-1 mRNA expression was reduced” value in test [1] (MV-4-11, 100 nM) is at most 30 min. Moreover, the “relative expression of MCL-1 mRNA compared controls over time” value in [1] (MV-4-11, 100 nM, 0.5-16 hour, FIG. 7B) was “down-regulates MCL-1 mRNA in MV-4-11 in a time-dependent manner”. Moreover, the “relative expression of MCL-1 compared to β-actin” value in the test with MCL-1 in MV-4-11 cells (MV-4-11, each treatment dosed at its 24 hour EC50, FIG. 17B) was “lower the expression of MCL-1”; in [2] (MV-4-11, alvocidib 0-8 μM, 2 hrs, FIG. 10A), “down-regulates MCL-1 in MV-4-11 cells in a dose dependent manner”. Moreover, in the test with MCL-1 in MV-4-11 cells (modeled in vitro, MV-4-11, FIG. 17A), the “expression of MCL-1 over the course of the ACM (or FLAM) regimen” value is given as “represses super enhancer complex regulated genes, including expression of MCL-1”. In addition, the “relative expression of MCL-1, Bcl-xL, and Bcl-2 compared β-actin over time” value in [2] (MV-4-11, 80 nM, 1-96 hour, FIG. 10B) was “down-regulates MCL-1 in MV-4-11 in a time-dependent manner”; in test [3] (0-96 hour, with and without wash step, FIG. 13A-B), “down-regulates MCL-1 in Panc-1 cells in a time dependent manner”; in [3] (repeat dosing regimen, FIG. 14), “down-regulates MCL-1 in Panc-1 cells in a time-dependent manner”; in [4] (0-96 hour, with and without wash step, FIG. 15A-B), “down-regulates MCL-1 in Yugen8 cells in a time dependent manner”; in [4] (repeat dosing regimen, FIG. 16), “down-regulates MCL-1 in Yugen8 in a time-dependent manner”; in [5] (0-96 hour, with and without wash step, FIG. 9A-B), “down-regulates MCL-1 in A549 in a time-dependent manner”. The “relative expression of MCL-1, Bcl-xL, and Bcl-2 compared β-actin over time” value in [5] (repeat dosing (three 24 hour periods, two 24 hour breaks), FIG. 12) is given as “down-regulates MCL-1 in A549 cells in a time-dependent manner”. The “relative expression of N-Myc compared β-actin over time” value in the test with N-Myc in SK-N-AS cells was “down-regulates N-Myc in SK-N-AS cells in a time-dependent manner”. Moreover, the EC50 with MV-4-11 cells is 80 nM.
